{"source": "patent US6642012B1", "about": "“Spectroscopic determination of characteristic of biological material” (priority 1996, dated 2003)", "test_system": "Peripheral blood mononuclear cells (PBMC)", "test": "FTIR monitoring of lymphocyte activation", "assay_type": "cell-based, human", "procedure": "Peripheral blood mononuclear cells (PBMC) from two volunteers, isolated using gradient mixtures were twice washed in 0.9% saline and centrifuged. The resulting pellets were resuspended in 1 ml of saline. One half of each sample was activated with phorbol myristate acetate (PMA) and the other half used as a control. After 15 minutes the four portions were desiccated and transferred to a infrared cell for FTIR microanalysis. For each portion six spectra were recorded.", "key": {"[1]": {"details": "PMA activated vs non-activated lymphocytes, 15 minutes"}}}
{"molecule": "CCCCCCCCCCCCCC(=O)O[C@@H]1[C@@H](C)[C@@]2(O)[C@@H](C=C(CO)C[C@]3(O)C(=O)C(C)=C[C@@H]23)[C@@H]2C(C)(C)[C@]12OC(C)=O", "note": "[PMA, phorbol myristate acetate]", "values": [{"measurement": "FTIR spectra of activated vs non-activated lymphocytes", "setting": "PBMC from two volunteers, PMA activation 15 minutes, desiccated, FTIR microanalysis", "value": "marked differences"}, {"measurement": "amide II band", "setting": "PMA activated lymphocytes, 15 minutes", "value": "multitude of shoulder peaks"}, {"measurement": "C—O stretch of fatty acyl groups (1400 cm-1) and C—O stretches of glycogen bands at 1058 and 1038 cm-1", "setting": "[1]", "value": "much more intense"}, {"measurement": "amide I β-pleated sheet component band at 1634 cm-1", "setting": "[1]", "value": "increase"}, {"measurement": "α-helical amide I band", "setting": "[1]", "value": "reduction"}]}
